The record followed here is patent US20250376441A1, “NOVEL COMPOUND AND PHARMACEUTICAL COMPOSITION COMPRISING SAME AS ACTIVE INGREDIENT” (Industry-Academic Cooperation Foundation, Yonsei University, priority 2017, published 2025).

The IC50 is the concentration that inhibits the measured activity by half. Low values mean greater potency in that assay, high ones weaker potency in that assay.

SMILES strings stand for the structures.

The assay relates to NIH 3T3. Description: Cytotoxicity test (Cyto X cell viability assay kit), NIH 3T3. The note with it: Mus musculus, NIH3T3. The assay is classed as cell-based. On the procedure:
In order to identify whether the Preparation Example 6 according to the present invention is toxic to cells, a cytotoxicity test was conducted at the Korea Research Institute of Chemical Technology using the Cyto X™ cell viability assay kit ([…]).

`COc1ccc(OC)c(/C=C/C(=O)c2ccc(NS(=O)(=O)c3ccc(Cl)cc3)cc2)c1` [Preparation Example 6, (E)-4-Chloro-N-(4-(3-(2,5-dimethoxyphenyl)acryloyl)phenyl)benzenesulfonamide] showed a half-inhibitory concentration (IC50) above 100 µM.
